Assay results from US20110015226A1, “Treatment of Energy Utilization Disease” (SUMMIT CORPORATION PLC, priority 2008, published 2011).
Where two headings read alike, the source gives them in different places.

Legend:
Format in all cases: biochemical
[1] = molecular target: T1, rabbit intestinal sucrase (Oryctolagus cuniculus, UniProt P07768); assay: Rabbit disaccharidase inhibition assay: sucrase; conditions: NI: no inhibition at 0.8 mM
T1 construct: The small intestine was dissected out of a female wild rabbit; from tissue; host or cells: small-intestinal mucosa of a female wild rabbit
Protocol: (§1) Sucrose (8.3 mM), maltose (5 mM) and isomaltose (6.3 mM) substrates were made using 0.2 M Macllvaine (citrate-phosphate) buffer, pH 6.0. The glucose detection reagent was prepared according to the supplier's instructions (Megazyme Ltd). Linearity of the timecourse of the reaction between the glucose detection reagent and glucose was tested using a series of glucose dilutions.
(§2) The method for preparation of mammalian small intestine mucosal disaccharidases was based on Griffiths (1998), omitting ammonium sulphate fractionation steps. The small intestine was dissected out of a female wild rabbit, and opened longitudinally using a scalpel. The mucosal layer was scraped off using the edge of a clean microscope slide, and placed into 3 ml of dH2O. The mucosal layer suspension was centrifuged at around 1000 rpm for 30 seconds to sediment tissue debris. The supernatant ([…]) was removed, and centrifuged again at 3500 rcf for 1 minute to remove fine particulates from suspension. The supernatant was diluted to give 0.2-0.25 mg/ml protein and stored at −30° C.
(§3) Enzyme assays were carried out using 5-15 μl of enzyme preparation, 5 μl of test compound (or dH2O for controls) and 15-25 μl of substrate solution. Reactions were covered using a sheet of plate sealing film, and incubated at 37° C. for 60 minutes. Glucose (from disaccharide hydrolysis) was quantified by adding 200 μl of glucose detection reagent and incubating the reactions for a further twenty-five minutes. Absorbance was measured at 510 nm against control blanks.

α-D-glucosidase (Rice) = molecular target: T2, α-D-glucosidase (Rice) (Oryza sativa subsp. japonica, UniProt Q653V7); assay: Glycosidase inhibition: α-D-glucosidase (Rice); conditions: for inhibition at 800 µM: compounds tested at 0.8 mM
T2 construct: purchased Sigma

[2] = molecular target: rabbit intestinal maltase; assay: Rabbit disaccharidase inhibition assay: maltase; conditions: NI: no inhibition at 0.8 mM
Protocol: as §1, §2, §3

[3] = molecular target: T3, α-L-fucosidase Bovine kidney (Bos taurus, UniProt Q2KIM0); assay: Glycosidase inhibition: α-L-fucosidase Bovine kidney; conditions: compounds tested at 0.8 mM
T3 construct: α-L-fucosidase (Bovine kidney); purchased Sigma; host or cells: bovine kidney
T3 sequence (Q2KIM0 23-468): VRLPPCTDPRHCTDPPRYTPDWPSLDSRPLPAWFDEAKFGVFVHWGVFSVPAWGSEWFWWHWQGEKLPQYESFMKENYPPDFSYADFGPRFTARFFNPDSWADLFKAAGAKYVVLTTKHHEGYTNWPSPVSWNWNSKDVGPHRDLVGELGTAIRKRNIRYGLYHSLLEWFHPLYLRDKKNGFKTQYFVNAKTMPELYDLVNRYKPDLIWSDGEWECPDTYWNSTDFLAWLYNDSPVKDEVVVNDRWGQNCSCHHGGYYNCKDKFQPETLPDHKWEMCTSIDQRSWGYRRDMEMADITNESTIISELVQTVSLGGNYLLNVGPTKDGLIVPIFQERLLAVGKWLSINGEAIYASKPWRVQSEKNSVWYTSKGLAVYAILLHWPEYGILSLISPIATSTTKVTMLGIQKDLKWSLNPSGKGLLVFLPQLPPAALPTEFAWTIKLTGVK

[4] = tested on: β-D-galactosidase Bovine liver; assay: Glycosidase inhibition: β-D-galactosidase Bovine liver; conditions: compounds tested at 0.8 mM
Excerpt: (§4) The results tabulated below were obtained using commercially available glycosidases and p-nitrophenyl-substrates using standard methods described for example by Watson et al (1997) Phytochemistry 46 255-259. All enzymes and substrates were bought from Sigma. Enzyme and substrate solutions were made using sodium phosphate buffers at the pH optima values. The enzymes used were α-D-glucosidase Saccharomyces cerevisiae, Bacillus stearothermophilus, Oryzae sativa), β-D-glucosidase (Almond), α-D-mannosidase (Jack bean), α-D-galactosidase (Green coffee beans), β-D-galactosidase (Bovine liver), α-L-fucosidase (Bovine kidney), N-acetyl-β-D-glucosaminidase (Bovine kidney, Jack bean, Aspergillus oryzae), Naringinase (Penicillium decumbens) and amyloglucosidase (Aspergillus niger). All enzymes were used with the appropriate p-nitrophenyl substrates (5 mM). Amyloglucosidase activity was measured using amylopectin (0.1%) (Merck) mixed with sodium phosphate buffer, pH 4.5 in a glass bottle, and healed in a boiling water bath for 20 minutes to dissolve with released glucose measured using ‘Trinder’ glucose detection solution (Sigma).
(§5) All enzymes and para-nitrophenyl substrates were purchased from Sigma, with the exception of beta-mannosidase which came from Megazyme. Enzymes were assayed at 27° C. in 0.1M citric acid/0.2M disodium hydrogen phosphate buffers at the optimum pH for the enzyme. The incubation mixture consisted of 10 μl enzyme solution, 10 μl of 1 mg/ml aqueous solution of extract and 50 μl of the appropriate 5 mM para-nitrophenyl substrate made up in buffer at the optimum pH for the enzyme. The reactions were stopped by addition of 70 μl 0.4M glycine (pH 10.4) during the exponential phase of the reaction, which had been determined at the beginning using uninhibited assays in which water replaced inhibitor. Final absorbances were read at 405 nm using a Versamax microplate reader (Molecular Devices). Assays were carried out in triplicate, and the values given are means of the three replicates per assay. (See Watson, A. A., Nash, R. J., Wormald, M. R., Harvey, D. J., Dealler, S., Lees, E., Asano, N., Kizu, H., Kato, A., Griffiths, R. C., Cairns, A. J. and Fleet, G. W. J. (1997). Glycosidase-inhibiting pyrrolidine alkaloids from Hyacinthoides non-scripta. Phytochemistry 46 (2): 255-259.)

[5] = molecular target: T4, α-D-galactosidase Green coffee bean (Coffea arabica, UniProt Q42656); assay: Glycosidase inhibition: α-D-galactosidase Green coffee bean; conditions: compounds tested at 0.8 mM
T4 construct: α-D-galactosidase (Green coffee beans); purchased Sigma; host or cells: green coffee beans
Excerpt: as §4, §5

[6] = molecular target: T5, rabbit intestinal isomaltase (Oryctolagus cuniculus, UniProt P07768); assay: Rabbit disaccharidase inhibition assay: isomaltase; conditions: NI: no inhibition at 0.8 mM
T5 construct: The small intestine was dissected out of a female wild rabbit; from tissue; host or cells: small-intestinal mucosa of a female wild rabbit
Protocol: as §1, §2, §3

[7] = tested on: rabbit digestive disaccharidases; assay: Rabbit digestive disaccharidases (summary statement); conditions: at 0.8 mM
Protocol: as §1, §2, §3

α-D-glucosidase (Yeast) = molecular target: T6, α-D-glucosidase (Yeast) (Saccharomyces cerevisiae, UniProt P53341); assay: Glycosidase inhibition: α-D-glucosidase (Yeast); conditions: compounds tested at 0.8 mM
T6 construct: purchased Sigma
Excerpt: as §4, §5

[8] = molecular target: α-D-glucosidase (Bacillus) (Geobacillus stearothermophilus, UniProt A0ACH1E9U3); assay: Glycosidase inhibition: α-D-glucosidase (Bacillus); conditions: compounds tested at 0.8 mM
Excerpt: as §4, §5

[9] = molecular target: T7, N-acetyl-β-D-glucosaminidase (A. oryzae) (Aspergillus oryzae, UniProt Q8J2T0); assay: Glycosidase inhibition: N-acetyl-β-D-glucosaminidase (A. oryzae); conditions: compounds tested at 0.8 mM
T7 construct: purchased Sigma
Excerpt: as §4, §5

[10] = molecular target: T8, Amyloglucosidase Aspergillus niger (Aspergillus niger, UniProt P69328); assay: Glycosidase inhibition: Amyloglucosidase Aspergillus niger; conditions: compounds tested at 0.8 mM
T8 construct: purchased Sigma
Excerpt: as §4, §5

T1 sequence (P07768 whole entry): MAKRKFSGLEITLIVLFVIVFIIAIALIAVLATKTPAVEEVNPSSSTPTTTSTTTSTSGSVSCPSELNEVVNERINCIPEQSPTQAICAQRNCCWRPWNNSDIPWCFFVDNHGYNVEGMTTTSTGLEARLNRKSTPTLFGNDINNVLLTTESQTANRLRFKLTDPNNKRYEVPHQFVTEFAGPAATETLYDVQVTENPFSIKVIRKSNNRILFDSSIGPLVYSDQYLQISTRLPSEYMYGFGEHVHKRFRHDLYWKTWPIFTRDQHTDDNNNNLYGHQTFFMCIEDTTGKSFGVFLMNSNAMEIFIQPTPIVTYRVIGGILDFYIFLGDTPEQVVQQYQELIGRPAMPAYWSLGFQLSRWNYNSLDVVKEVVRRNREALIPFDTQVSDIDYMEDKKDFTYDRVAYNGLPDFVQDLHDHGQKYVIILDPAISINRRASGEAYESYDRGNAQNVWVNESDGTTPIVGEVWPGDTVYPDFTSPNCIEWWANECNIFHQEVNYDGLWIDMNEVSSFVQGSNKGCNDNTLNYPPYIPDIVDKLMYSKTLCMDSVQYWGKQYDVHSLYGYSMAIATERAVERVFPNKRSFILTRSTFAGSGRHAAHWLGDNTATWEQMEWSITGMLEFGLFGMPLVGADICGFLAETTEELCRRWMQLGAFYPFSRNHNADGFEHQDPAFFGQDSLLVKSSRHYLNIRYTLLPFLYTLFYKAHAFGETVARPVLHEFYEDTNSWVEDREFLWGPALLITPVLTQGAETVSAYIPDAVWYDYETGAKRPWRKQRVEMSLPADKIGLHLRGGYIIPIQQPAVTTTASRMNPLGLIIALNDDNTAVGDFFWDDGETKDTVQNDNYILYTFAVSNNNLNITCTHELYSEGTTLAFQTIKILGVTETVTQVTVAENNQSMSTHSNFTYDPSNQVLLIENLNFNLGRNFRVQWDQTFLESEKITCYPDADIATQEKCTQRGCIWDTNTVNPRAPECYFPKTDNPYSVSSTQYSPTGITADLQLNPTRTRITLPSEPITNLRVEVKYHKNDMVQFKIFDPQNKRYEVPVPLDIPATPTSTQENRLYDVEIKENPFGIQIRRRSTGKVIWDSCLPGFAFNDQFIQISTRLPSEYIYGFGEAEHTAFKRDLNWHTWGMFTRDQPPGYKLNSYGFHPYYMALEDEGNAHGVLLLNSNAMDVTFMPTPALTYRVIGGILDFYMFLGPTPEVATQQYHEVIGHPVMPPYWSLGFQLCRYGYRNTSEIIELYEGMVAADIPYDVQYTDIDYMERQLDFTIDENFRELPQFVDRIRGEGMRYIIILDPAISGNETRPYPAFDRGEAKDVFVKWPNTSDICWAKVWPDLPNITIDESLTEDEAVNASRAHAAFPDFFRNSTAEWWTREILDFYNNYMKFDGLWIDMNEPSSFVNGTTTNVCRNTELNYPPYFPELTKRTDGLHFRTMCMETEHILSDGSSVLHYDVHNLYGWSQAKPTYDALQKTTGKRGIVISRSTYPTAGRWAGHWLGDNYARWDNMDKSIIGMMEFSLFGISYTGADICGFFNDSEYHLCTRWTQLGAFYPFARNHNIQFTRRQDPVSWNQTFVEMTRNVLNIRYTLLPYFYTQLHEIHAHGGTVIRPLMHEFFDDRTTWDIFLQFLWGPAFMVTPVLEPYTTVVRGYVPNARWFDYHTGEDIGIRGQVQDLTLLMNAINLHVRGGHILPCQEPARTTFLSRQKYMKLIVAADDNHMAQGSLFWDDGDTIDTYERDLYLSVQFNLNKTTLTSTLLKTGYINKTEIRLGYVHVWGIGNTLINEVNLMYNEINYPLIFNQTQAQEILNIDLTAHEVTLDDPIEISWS
T5 sequence (P07768 whole entry): as above
T7 sequence (Q8J2T0 97-600): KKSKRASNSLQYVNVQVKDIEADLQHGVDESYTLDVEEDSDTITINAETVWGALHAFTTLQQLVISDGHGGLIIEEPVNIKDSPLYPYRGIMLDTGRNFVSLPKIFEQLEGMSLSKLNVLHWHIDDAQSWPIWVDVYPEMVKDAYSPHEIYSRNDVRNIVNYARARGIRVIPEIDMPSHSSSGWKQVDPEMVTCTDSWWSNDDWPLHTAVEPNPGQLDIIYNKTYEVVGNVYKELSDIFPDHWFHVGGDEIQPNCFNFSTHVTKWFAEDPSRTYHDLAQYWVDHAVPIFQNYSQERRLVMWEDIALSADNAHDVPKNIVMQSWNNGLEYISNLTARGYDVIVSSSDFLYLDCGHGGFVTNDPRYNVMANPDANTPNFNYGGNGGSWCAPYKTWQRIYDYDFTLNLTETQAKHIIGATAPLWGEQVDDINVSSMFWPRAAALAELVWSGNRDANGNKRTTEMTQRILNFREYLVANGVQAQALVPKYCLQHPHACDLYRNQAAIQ
T2 sequence (Q653V7 34-885): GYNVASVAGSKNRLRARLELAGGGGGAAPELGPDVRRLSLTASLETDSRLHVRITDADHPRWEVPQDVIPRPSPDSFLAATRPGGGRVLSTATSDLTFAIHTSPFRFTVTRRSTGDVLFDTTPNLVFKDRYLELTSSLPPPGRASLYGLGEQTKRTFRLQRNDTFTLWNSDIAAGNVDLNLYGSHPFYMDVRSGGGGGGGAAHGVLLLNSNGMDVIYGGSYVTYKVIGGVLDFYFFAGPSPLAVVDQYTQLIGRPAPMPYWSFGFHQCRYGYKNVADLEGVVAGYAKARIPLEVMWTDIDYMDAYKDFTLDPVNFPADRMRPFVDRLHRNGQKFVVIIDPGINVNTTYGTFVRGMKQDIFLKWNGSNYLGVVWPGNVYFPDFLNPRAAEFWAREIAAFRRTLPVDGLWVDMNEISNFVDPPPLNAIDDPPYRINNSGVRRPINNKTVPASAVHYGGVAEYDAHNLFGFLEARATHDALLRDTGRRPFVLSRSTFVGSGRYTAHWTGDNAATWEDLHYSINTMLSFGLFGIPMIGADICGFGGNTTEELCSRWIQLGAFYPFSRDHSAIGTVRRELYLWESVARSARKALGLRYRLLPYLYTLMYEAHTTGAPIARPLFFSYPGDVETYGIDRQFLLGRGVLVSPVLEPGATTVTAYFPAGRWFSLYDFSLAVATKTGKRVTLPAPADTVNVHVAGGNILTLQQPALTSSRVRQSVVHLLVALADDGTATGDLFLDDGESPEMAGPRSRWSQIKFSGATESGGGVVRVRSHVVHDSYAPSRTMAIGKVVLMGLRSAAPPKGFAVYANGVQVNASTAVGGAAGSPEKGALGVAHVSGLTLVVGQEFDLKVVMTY
Chain of α-D-glucosidase (Bacillus) (A0ACH1E9U3 entry or part of it): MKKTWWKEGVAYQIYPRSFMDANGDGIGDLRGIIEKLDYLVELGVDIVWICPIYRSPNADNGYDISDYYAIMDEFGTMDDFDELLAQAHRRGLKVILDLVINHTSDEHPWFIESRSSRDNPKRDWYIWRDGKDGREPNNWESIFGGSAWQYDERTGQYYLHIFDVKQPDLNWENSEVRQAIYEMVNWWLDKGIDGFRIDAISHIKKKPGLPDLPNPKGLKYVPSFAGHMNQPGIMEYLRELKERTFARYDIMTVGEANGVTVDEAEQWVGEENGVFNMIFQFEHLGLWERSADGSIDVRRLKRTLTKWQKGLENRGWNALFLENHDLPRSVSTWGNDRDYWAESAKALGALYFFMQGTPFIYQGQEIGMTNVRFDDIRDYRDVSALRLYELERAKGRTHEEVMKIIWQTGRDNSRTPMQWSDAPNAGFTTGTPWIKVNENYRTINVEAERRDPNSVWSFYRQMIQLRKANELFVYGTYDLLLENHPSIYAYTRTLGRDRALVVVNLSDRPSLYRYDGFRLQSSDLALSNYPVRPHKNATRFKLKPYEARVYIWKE
T6 sequence (P53341 whole entry): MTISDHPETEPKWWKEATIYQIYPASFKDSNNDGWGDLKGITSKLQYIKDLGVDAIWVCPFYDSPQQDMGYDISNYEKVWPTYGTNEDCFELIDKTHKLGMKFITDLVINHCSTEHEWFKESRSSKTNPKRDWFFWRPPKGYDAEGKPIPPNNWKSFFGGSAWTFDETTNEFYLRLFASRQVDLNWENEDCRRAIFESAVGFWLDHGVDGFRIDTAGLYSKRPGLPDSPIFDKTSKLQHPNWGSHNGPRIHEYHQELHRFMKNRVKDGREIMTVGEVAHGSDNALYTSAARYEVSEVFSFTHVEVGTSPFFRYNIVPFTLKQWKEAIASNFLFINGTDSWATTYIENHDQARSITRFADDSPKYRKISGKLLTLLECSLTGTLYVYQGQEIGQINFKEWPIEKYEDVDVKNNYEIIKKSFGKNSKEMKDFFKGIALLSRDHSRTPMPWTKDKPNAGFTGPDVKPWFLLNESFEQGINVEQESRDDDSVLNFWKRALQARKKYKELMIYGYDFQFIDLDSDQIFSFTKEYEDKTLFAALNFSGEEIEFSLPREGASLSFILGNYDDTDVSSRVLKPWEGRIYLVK
T4 sequence (Q42656 16-378): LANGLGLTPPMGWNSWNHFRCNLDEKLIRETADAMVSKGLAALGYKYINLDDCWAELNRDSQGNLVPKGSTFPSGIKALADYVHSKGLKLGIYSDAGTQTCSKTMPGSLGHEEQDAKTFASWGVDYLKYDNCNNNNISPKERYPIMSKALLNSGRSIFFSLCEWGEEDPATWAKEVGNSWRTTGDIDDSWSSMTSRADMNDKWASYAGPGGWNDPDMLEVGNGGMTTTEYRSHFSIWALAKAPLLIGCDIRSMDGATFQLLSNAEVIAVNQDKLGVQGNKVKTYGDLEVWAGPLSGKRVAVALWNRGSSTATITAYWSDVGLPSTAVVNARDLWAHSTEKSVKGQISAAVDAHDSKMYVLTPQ

## O=C(O)[C@H]1NC[C@H](O)[C@@H](O)[C@@H]1O [Compound G2, 2S,3R,4R,5S-trihydroxypiperidine-2-carboxylic acid]
[1]
  IC50: > 800 µM
α-D-glucosidase (Rice)
  inhibition at 800 µM: 55%
[2]
  IC50: > 800 µM
[3]
  inhibition at 800 µM: < 10%
[4]
  % inhibition, β-D-galactosidase Bovine liver: NI (NI = no inhibition)
[5]
  inhibition at 800 µM: < 10%
[6]
  IC50: > 800 µM
[7]
  inhibition of the disaccharidases: no inhibition
α-D-glucosidase (Yeast)
  inhibition at 800 µM: < 10%
[8]
  inhibition at 800 µM: 49%
[9]
  inhibition at 800 µM: < 10%
[10]
  inhibition at 800 µM: < 10%

## O=C(O)CN1[C@H](CO)[C@@H](O)[C@H](O)[C@H]1CO [Compound S2, 2-((2R,3R,4R,5R)-3,4-Dihydroxy-2,5-bis(hydroxymethyl)pyrrolidin-1-yl)acetic acid]
[1]
  IC50: > 800 µM
α-D-glucosidase (Rice)
  inhibition at 800 µM: < 50%
[2]
  IC50: > 800 µM
[3]
  inhibition at 800 µM: < 50%
[4]
  % inhibition, β-D-galactosidase Bovine liver: 60%
[5]
  inhibition at 800 µM: < 50%
[7]
  inhibition of the disaccharidases: no inhibition
α-D-glucosidase (Yeast)
  inhibition at 800 µM: < 50%
[8]
  inhibition at 800 µM: 92.7%
[9]
  inhibition at 800 µM: < 50%
[10]
  inhibition at 800 µM: < 50%

## O=C(O)CCN1C[C@H](O)[C@@H](O)[C@H](O)[C@H]1CO [Compound T1]
[1]
  IC50: 6.1 µM
  sucrase IC50 (uM): very weak inhibition
α-D-glucosidase (Rice)
  inhibition at 800 µM: 99.1%
α-D-glucosidase (Rice); read-out: IC50, α-D-glucosidase (Rice)
  IC50: 2.4 µM
[2]
  IC50: 19 µM
  maltase IC50 (uM): very weak inhibition
[3]
  inhibition at 800 µM: < 50%
[5]
  inhibition at 800 µM: < 50%
α-D-glucosidase (Yeast)
  inhibition at 800 µM: < 50%
[8]
  inhibition at 800 µM: < 50%
[9]
  inhibition at 800 µM: < 50%
[10]
  inhibition at 800 µM: 53%

## CCCCOC(=O)[C@@H]1[C@@H](O)[C@H](O)[C@@H](O)CN1CCCC [Compound T2, (2S,3R,4R,5S)-Butyl 1-butyl-3,4,5-trihydroxypiperidine-2-carboxylate]
[1]
  IC50: > 800 µM
α-D-glucosidase (Rice)
  inhibition at 800 µM: < 50%
[2]
  IC50: > 800 µM
[3]
  inhibition at 800 µM: < 50%
[5]
  inhibition at 800 µM: < 50%
[6]
  IC50: > 800 µM
[7]
  inhibition of the disaccharidases: no inhibition
α-D-glucosidase (Yeast)
  inhibition at 800 µM: < 50%
[8]
  inhibition at 800 µM: < 50%
[9]
  inhibition at 800 µM: < 50%
[10]
  inhibition at 800 µM: < 50%

## OC[C@H]1NC[C@H](O)[C@@H](O)[C@@H]1O [DNJ, 1-deoxynojirimycin, reference compound]
[1]
  IC50: 0.09 µM
α-D-glucosidase (Rice)
  IC50: 0.9 µM
[2]
  IC50: 0.18 µM
[3]
  inhibition at 800 µM: < 10%
[4]
  % inhibition, β-D-galactosidase Bovine liver: NI (NI = no inhibition)
[5]
  inhibition at 800 µM: < 10%
[6]
  IC50: 0.02 µM
α-D-glucosidase (Yeast)
  inhibition at 800 µM: 36%
[8]
  inhibition at 800 µM: 100%
[9]
  inhibition at 800 µM: < 10%
[10]
  inhibition at 800 µM: 32%
